Source: patent US8889878B2, “Haloalky-substituted amides as insecticides and acaricides” (Bayer CropScience AG, priority 2009, dated 2014)

Key:
[1] = logP by HPLC on reverse-phase column (EEC Directive 79/831 Annex V.A8); type: physicochemical; settings: for chromatographic logP: reverse-phase C18 HPLC column, pH 2.7, HPLC
Description: The logP values reported in the above Tables and Preparation Examples were determined according to EEC Directive 79/831 Annex V.A8 by HPLC (High Performance Liquid Chromatography) on a reverse-phase column (C18). Temperature 43° C.

[2] = tested on: armyworm (Spodoptera frugiperda); experiment: Spodoptera frugiperda test (SPODFR spray treatment), Example 15; type: in vivo; settings: maize leaf discs sprayed, after 7 days
Description: Spodoptera frugiperda Test (SPODFR Spray Treatment)
• Solvent: 78.0 parts by weight of acetone • 1.5 parts by weight of dimethylformamide • Emulsifier: 0.5 part by weight of alkylaryl polyglycol ether
To prepare an appropriate active ingredient formulation, 1 part by weight of active ingredient is mixed with the stated amounts of solvent and emulsifier, and the concentrate is diluted with emulsifier-containing water to the desired concentration. Leaf discs from maize (Zea mays) are sprayed with an active ingredient formulation of the desired concentration and, after drying, populated with caterpillars of the armyworm (Spodoptera frugiperda).
After 7 days, the efficacy in % is determined. 100% means that all caterpillars were killed; 0% means that no caterpillars were killed.

[3] = HPLC-MS, HPLC on reverse-phase column
[4] = HPLC, C18 reverse phase, 43° C., acidic range pH 2.7, calibration with alkan-2-ones
[5] = C18 reverse phase, 43° C., acidic range pH 2.7, calibration with alkan-2-ones

Row | SMILES | logP ([1]; HPLC-MS) | efficacy in % ([2]; application rate 100 g/ha) | also measured
1 | O=C(/C=C/c1ccc(C(=O)Nc2cc(Cl)ccn2)c(Cl)c1)NC(c1cccc(C(F)(F)F)c1)C(F)(F)F (centres unmarked) [Ia-165] | HPLC-MS: logP = 4,23; mass | 100% | 
2 | CC(=O)NCc1ccc(/C=C/C(=O)NC(c2cccc(C(F)(F)F)c2)C(F)(F)F)cc1Cl (centres unmarked) [Ia-248] | HPLC-MS: logP = 3.06; mass | 100% | 
3 | O=C(/C=C/c1ccc(C(=O)NC2CC2)c(C(F)(F)F)c1)NC(c1cccc(Br)c1)C(F)(F)F (centres unmarked) [Ia-284] |  | 100% | logP [1, 3]: HPLC-MS: logP = 3.35; mass
4 | CC(NC(=O)CC1CC1)c1ccc(/C=C/C(=O)NC(c2cccc(C(F)(F)F)c2)C(F)(F)F)nc1 (centres unmarked) [If-3] |  | 100% | 
5 | O=C(/C=C/c1ccc(C(=O)NCc2ccccn2)cc1)NC(c1cccc(C(F)(F)F)c1)C(F)(F)F (centres unmarked) [Ia-7] | HPLC-MS: logP = 2.45; mass |  | efficacy in % ([2]; application rate 500 g/ha): 83%
6 | Cc1ccnc(NC(=O)c2ccc(/C=C/C(=O)NC(c3cccc(C(F)(F)F)c3)C(F)(F)F)cc2C(F)(F)F)c1 (centres unmarked) [Ia-259] | HPLC-MS: logP = 3.61; mass | 100% | 
7 | CC(C)C(=O)N(Cc1ccccn1)Cc1ccc(/C=C/C(=O)NC(c2cccc(C(F)(F)F)c2)C(F)(F)F)cc1F (centres unmarked) [Ia-253] | HPLC-MS: logP = 3.37; mass | 100% | 
8 | O=C(/C=C/c1ccc(C(=O)Nc2ccccn2)c(C(F)(F)F)c1)NC(c1cncc(C(F)(F)F)c1)C(F)(F)F (centres unmarked) [Ib-2] |  |  | logP [1, 4]: HPLC-MS: logP = 3.02 mass (m/z):; efficacy in % ([2]; application rate 500 g/ha): 83%
9 | CCOCn1c(C(=O)NC(c2cccc(C(F)(F)F)c2)C(F)(F)F)cc2cc(C(=O)NC3CC3)c(Cl)cc21 (racemic) [Ic-27] |  | 100% | logP [1, 4]: HPLC-MS: logP = 3.81; mass
10 | O=C(/C=C/c1ccc(CNC(=O)C2CCC2)c(C(F)(F)F)c1)NC(c1cccc(C(F)(F)F)c1)C(F)(F)F (centres unmarked) [Ia-267] |  | 100% | logP [1, 3]: HPLC-MS: logP = 3.9; mass
11 | O=C(/C=C/c1ccc(C(=O)Nc2ccc(F)cn2)c(C(F)(F)F)c1)NC(c1cccc(C(F)(F)F)c1)C(F)(F)F (racemic) [Ia-210] | HPLC-MS: logP = 3.93; mass | 100% | 
12 | O=C(/C=C/c1ccc(-n2cnc(Cl)n2)c(C(F)(F)F)c1)NC(c1cccc(C(F)(F)F)c1)C(F)(F)F (racemic) [Ia-208] | HPLC-MS: logP = 4.02; mass | 100% | 
13 | C=CCn1c(C(=O)NC(c2cccc(C(F)(F)F)c2)C(F)(F)F)cc2cc(C(=O)NC3CC3)c(Cl)cc21 (racemic) [Ic-29] |  | 100% | logP [1, 4]: HPLC-MS: logP = 3.86; mass
14 | CCC(=O)NC(C)c1ccc(/C=C/C(=O)NC(c2cccc(C(F)(F)F)c2)C(F)(F)F)cc1F (centres unmarked) [Ia-273] |  | 100% | logP [1, 3]: HPLC-MS: logP = 3.3; mass
15 | CCN(C(=O)c1ccc(/C=C/C(=O)NC(c2cccc(C(F)(F)F)c2)C(F)(F)F)cc1C(F)(F)F)C1CC1 (centres unmarked) [Ia-257] | HPLC-MS: logP = 3.89; mass | 100% | 
16 | O=C(/C=C/c1ccc(C(=O)Nc2cnc(Br)cn2)c(C(F)(F)F)c1)NC(c1cccc(C(F)(F)F)c1)C(F)(F)F (centres unmarked) [Ia-226] | HPLC-MS: logP = 4.15; mass | 100% | 
17 | CCC(=O)NC(C)c1ccc(/C=C/C(=O)NC(c2ccc(F)c(C(F)(F)F)c2)C(F)(F)F)cc1F (centres unmarked) [Ia-275] |  | 100% | logP [1, 3]: HPLC-MS: logP = 3.38; mass
18 | O=C(/C=C/c1ccc(-n2cncn2)c(Cl)c1)NC(c1ccc(F)c(Cl)c1)C(F)(F)F (racemic) [Ia-209] | HPLC-MS: logP = 3.15; mass | 83% | 
19 | CCC(=O)NC(C)c1ccc(/C=C/C(=O)NC(c2ccc(F)c(Cl)c2)C(F)(F)F)cc1F (centres unmarked) [Ia-274] |  | 100% | logP [1, 3]: HPLC-MS: logP = 3.23; mass
20 | O=C(/C=C/c1ccc(CNc2cc(Cl)ccn2)c(C(F)(F)F)c1)NC(c1cccc(C(F)(F)F)c1)C(F)(F)F (centres unmarked) [Ia-264] |  | 100% | logP [1, 3]: HPLC-MS: logP = 4.28; mass
21 | CC(=O)NCc1ccc(/C=C/C(=O)NC(c2cccc(C(F)(F)F)c2)C(F)(F)F)cc1C(F)(F)F (centres unmarked) [Ia-247] | HPLC-MS: logP = 3.24; mass | 100% | 
22 | O=C(/C=C/c1ccc(C(=O)Nc2ncccn2)c(C(F)(F)F)c1)NC(c1cccc(C(F)(F)F)c1)C(F)(F)F (centres unmarked) [Ia-119] | HPLC-MS: logP = 3.11; mass | 100% | 
23 | C#CC(C)NC(=O)c1ccc(/C=C/C(=O)NC(c2cccc(C(F)(F)F)c2)C(F)(F)F)cc1Br (centres unmarked) [Ia-178] | HPLC-MS: logP = 3.44; mass | 100% | 
24 | N#Cc1ccc(NC(=O)c2ccc(/C=C/C(=O)NC(c3cccc(C(F)(F)F)c3)C(F)(F)F)cc2Br)nc1 (racemic) [Ia-214] | HPLC-MS: logP = 3.75; mass | 100% | 
25 | CCC(=O)NCc1ccc(/C=C/C(=O)NC(c2ccc(F)c(C(F)(F)F)c2)C(F)(F)F)cc1C(F)(F)F (centres unmarked) [Ia-272] |  | 100% | logP [1, 3]: HPLC-MS: logP = 3.61; mass

Row | SMILES | logP ([1]; HPLC-MS) | efficacy in % ([2]; application rate 100 g/ha) | also measured
26 | CC(=O)NCc1ccc(/C=C/C(=O)NC(c2cccc([S+](C)[O-])c2)C(F)(F)F)cc1C(F)(F)F (centres unmarked) [Ia-245] | HPLC-MS: logP = 1.98; mass |  | 
27 | COC(=O)c1ccc(/C=C/C(=O)NC(c2cccc(C(F)(F)F)c2)C(F)(F)F)cc1C (centres unmarked) [Ia-26] | HPLC-MS: logP = 4.09; mass |  | 
28 | O=C(O)/C=C/c1ccc(C(=O)NCc2ccccn2)c(C(F)(F)F)c1 [(2E)-3-[4-(Pyridin-2-ylmethyl)carbamoyl)-3-trifluoromethylphenyl]acrylic acid] |  |  | logP ([1]; pH 2.7): 0.91
29 | Cc1cc(/C=C/C(=O)NC(c2cc(Cl)cc(Cl)c2)C(F)(F)F)ccc1C(=O)NC1CC1 (centres unmarked) [Ia-12] | HPLC-MS: logP = 3.33; mass |  | 
30 | C#CC(C)NC(=O)c1cc2cc(C(=O)NC(c3cccc(C(F)(F)F)c3)C(F)(F)F)n(C)c2cc1Cl (racemic) [Ic-31] |  |  | logP [1, 4]: HPLC-MS: logP = 3.73; mass
31 | FC(F)(F)c1cc(Br)ccc1CNc1ccccn1 [N-[4-Bromo-2-(trifluoromethyl)benzyl]pyridin-2-amine] |  |  | chromatographic logP [1, 5]: 1.57
32 | O=C(O)/C=C/c1ccc(C(=O)NCc2ccccc2)c(C(F)(F)F)c1 [(2E)-3-[4-(Phenylmethyl)carbamoyl)-3-trifluoromethylphenyl]acrylic acid] |  |  | logP ([1]; pH 2.7): 2.12
33 | O=C(NCc1ccccc1)c1ccc(Br)cc1C(F)(F)F [N-Benzyl-4-bromo-2-(trifluoromethyl)benzamide] |  |  | chromatographic logP [1, 5]: 2.89
34 | CC(NC(=O)c1ccc(/C=C/C(=O)NC(c2cccc(C(F)(F)F)c2)C(F)(F)F)cc1C(F)(F)F)C1(Cl)CC1 (centres unmarked) [Ia-171] | HPLC-MS: logP = 4.18; mass |  | 
35 | O=C(/C=C/c1ccc(C(=O)Nc2cccc(Cl)n2)c(C(F)(F)F)c1)NC(c1cccc(C(F)(F)F)c1)C(F)(F)F (centres unmarked) [Ia-120] | HPLC-MS: logP = 4.33; mass |  | 
36 | N#Cc1cc(/C=C/C(=O)NC(c2cccc(F)c2)C(F)(F)F)ccc1-n1cncn1 (centres unmarked) [Ia-13] | HPLC-MS: logP = 2.61; mass |  | 
37 | O=C(/C=C/c1ccc(C(=O)NC2CC2)c(C(F)(F)F)c1)NC(c1cc(Cl)c(Cl)c(Cl)c1)C(F)(F)F (centres unmarked) [Ia-283] |  |  | logP [1, 3]: HPLC-MS: logP = 4.1; mass
38 | NC(=O)c1ccc2oc(C(=O)NC(c3cccc(C(F)(F)F)c3)C(F)(F)F)cc2c1 (centres unmarked) [Ic-6] |  |  | logP [1, 4]: HPLC-MS: logP = 2.69; mass
39 | Cc1cc(Br)ccc1C(=O)NCc1ccccn1 [4-Bromo-2-methyl-N-(pyridin-2-ylmethyl)benzamide] |  |  | chromatographic logP [1, 5]: 1.4
40 | CC(C)(C)OC(=O)NCc1ccc(Br)cc1C(F)(F)F [tert-Butyl [4-bromo-2-(trifluoromethyl)benzyl]carbamate] |  |  | chromatographic logP [1, 5]: 4.13
41 | O=C(/C=C/c1ccc(C(=O)NC2C[S+]([O-])C2)c(C(F)(F)F)c1)NC(c1cccc(C(F)(F)F)c1)C(F)(F)F (centres unmarked) [Ia-227] | HPLC-MS: logP = 2.71; mass |  | 
42 | O=C(NC1CC1)c1cnc(I)cc1C(F)(F)F [N-Cyclopropyl-6-iodo-4-(trifluoromethyl)nicotinamide] |  |  | chromatographic logP [1, 5]: 1.92
43 | O=C(/C=C/c1ccc(C(=O)NC2CC2)c(C(F)(F)F)c1)NC(c1cccc(Cl)c1)C(F)F (centres unmarked) [Id-3] |  |  | logP [1, 4]: HPLC-MS: logP = 2.92; mass
44 | COC(=O)C(C)NC(=O)c1ccc(C=CC(=O)NC(c2cccc(C(F)(F)F)c2)C(F)(F)F)cc1Cl (mixture of isomers) [Ia-191] | HPLC-MS: logP = 3.29; mass |  | 
45 | CCOC(=O)c1cc2cc(C(=O)NC(c3cccc(C(F)(F)F)c3)C(F)(F)F)[nH]c2cc1Cl (centres unmarked) [Ethyl 6-chloro-2-({2,2,2-trifluoro-1-[3-(trifluoromethyl)phenyl]ethyl}carbamoyl)-1H-indole-5-carboxylate] |  |  | chromatographic logP [1, 5]: 4.12
46 | O=C(/C=C/c1ccc(C(=O)NCc2ccccn2)c(C(F)(F)F)c1)NC(c1ccc([N+](=O)[O-])cc1)C(F)(F)F (centres unmarked) [Ia-34] | HPLC-MS: logP = 2.93; mass |  | 
47 | C=CCC(=O)NCc1ccc2oc(C(=O)NC(c3cccc(C(F)(F)F)c3)C(F)(F)F)cc2c1 (centres unmarked) [Ic-13] |  |  | logP [1, 4]: HPLC-MS: logP = 3.24; mass
48 | O=C(/C=C/c1ccc(C(=O)Nc2ncc(Cl)cn2)c(Cl)c1)NC(c1cccc(C(F)(F)F)c1)C(F)(F)F (racemic) [Ia-199] | HPLC-MS: logP = 3.47; mass |  | 
49 | CN(C(=O)/C=C/c1ccc(C#N)cc1)C(c1cccc(C(F)(F)F)c1)C(F)(F)F (centres unmarked) [Ia-25, (2E)-3-(4-Cyanophenyl)-N-methyl-N-{2,2,2-trifluoro-1-[3-(trifluoromethyl)phenyl]-ethyl}acrylamide] |  |  | chromatographic logP [1, 5]: 4.01
50 | O=C(/C=C/c1ccc(CNC(=O)c2ccsc2)c(C(F)(F)F)c1)NC(c1cccc(C(F)(F)F)c1)C(F)(F)F (centres unmarked) [Ia-268] |  |  | logP [1, 3]: HPLC-MS: logP = 3.92; mass
